In US10857128B2, “Methods and compositions for treating inflammatory diseases” (Helmholtz Zentrum München Deutsches Forschungszentrum für …, priority 2017, dated 2020):

Assays:
gut microbiota = test: Gut microbial diversity by 16S rRNA barcoding of caecum samples; assay type: in vivo, Balb/c mice
Description: Bacterial 16S rRNA gene amplification and diversity analysis. Diversity analysis of 16S rRNA genes was performed by amplicon sequencing. In the first PCR reaction, bacterial genomic DNA was subjected to 16S rRNA gene amplifications using the primer S-D-Bact-0785-a-S-18 [5′-GGMTTAGATACCCBDGTA-3′] (SEQ ID NO: 1) and S-*-Univ-1100-a-A-15 [5′-[…]-3′] (SEQ ID NO: 2) as already mentioned. The reaction mixture of 25 μL in total was composed of 5 ng×μL-1 template DNA, 10 μM of each primer, 10 mM dNTPs (Fermentas, Vilnius, Lithuania), 5% of dimethyl sulfoxide (Sigma-Aldrich, St. Louis, USA), 5 U×μL-1 of FastStart High Fidelity Polymerase (Roche Diagnostics, Mannheim, Germany), 10× FastStart Buffer, and nuclease-free water (Life Technologies, Carlsbad, Calif., USA). The PCR started with an initialization at 95° C. for 5 min, followed by 28 cycles of denaturation at 94° C. for 45 sec, annealing at 44° C. for 45 sec, and elongation at 72° C. for 45 sec. A final elongation step at 72° C. for 5 min completed the PCR reaction. To minimize contamination with primer dimers, generated fragments were cut out of the gel after standard agarose gel electrophoresis and purified with the NucleoSpin Gel and PCR Clean-up Kit (Macherey-Nagel, Düren, Germany).
During the second PCR, Illumina sequencing adapters as well as dual indices were attached to the purified amplicons using the Nextera XT Index Kit (Illumina, San Diego, Calif., USA). The reaction volume was 50 μL in total and contained 5 μL of genomic DNA, 5 μL of each Nextera XT Index Primer, 25 μl 2× KAPA HiFi HotStart ReadyMix (Kapa Biosystems, Wilmington, Mass., USA), and 10 μL of nuclease-free water (Life Technologies, Carlsbad, Calif., USA). The PCR reaction was performed according to the following thermal profile: 95° C. for 3 min, followed by 8 cycles of 95° C. for 30 sec, 55° C. for 30 sec, 72° C. for 30 sec, and finalized by 72° C. for 5 min. The PCR products were cleaned up with the Agencourt AMPure XP system (Beckman Coulter, Brea, Calif., USA), DNA was quantified and the DNA quality was controlled using the 2100 Bioanalyzer Instrument (Agilent Technologies, Santa Clara, Calif., USA), and sequenced with the MiSeq instrument (Illumina, San Diego, Calif., USA).
For testing prevention of AAI, mice received 50 mM D-tryptophan starting at least three days before the first sensitization until sacrificing on day 25. For microbiome analyses, the caecum was cut off and immediately stored at −80° C. until further processing.
Microbial Diversity. Bacterial diversity was assessed by molecular barcoding of 16S rRNA genes in caecum samples of six animals per group. To this end, DNA was directly extracted from the caecum using a kit based protocol (PowerSoil DNA Isolation Kit, MO BIO Laboratories, Carlsbad, Calif., USA). 315 bp fragments were amplified within the variable region V5 and V6 of the 16S rRNA gene using S-D-Bact-0785-a-S-18[5′-GGMTTAGATACCCBDGTA-3′] (SEQ ID NO: 1) and S-*-Univ-1100-a-A-15 [5′-[…]-3′] (SEQ ID NO: 2) as primers (Klindworth et al., Nucleic Acids Res. 2013 Jan. 7; 41(1):el). Sequencing of amplicons was performed on the Illumina MiSeq platform (Illumina, San Diego, Calif., USA) using paired end technology (see section “Bacterial 16S rRNA gene amplification and diversity analysis” herein). Sequences are deposited in NCBI accession number PRJNA304109.
Reads were analyzed with the software package QIIME. Operational taxonomic units (OTUs) were picked within the 13_8 version of the Greengenes reference database (McDonald et al., ISME J. 2012 March; 6(3):610-8) at a similarity level of 95% sequence identity. Sequences were subsampled to 15000 reads per sample, which reflects the number of reads obtained in the sample with the lowest number of reads after quality control. This number was still sufficient to reach a plateau when collectors' curves were calculated on the basis of OTU95. […]

[1] = test system: murine naïve CD4+ T cells; test: In vitro differentiation of murine primary T cells (Th1, Th2, Treg); assay type: cell-based, Balb/c mice; conditions: 10 or 50 μM D-Trp
Excerpt: Differentiation of murine primary T cells. Murine spleens from female Balb/c mice were filtered through a 40 μm filter to generate single cell suspensions. These were then subjected to red blood cell lysis by using RBC lysis buffer (Biolegend, San Diego, USA) according to the manufacturer's recommendations. Afterwards, naïve CD4^+ T cells were isolated via magnetic-activated cell sorting (MACS) using the naïve CD4^+ T cell isolation kit (Miltenyi Biotec, Bergisch-Gladbach, Germany). The resulting naïve CD4^+ T cells were cultured in 96 wells plates (1×10^6 cells/ml Medium) in TexMACS medium supplemented with 10% FCS, 0.01 mM 2-Mercaptoethanol, rIL-2 (10 ng/ml) as well as MACSiBead particles with anti-CD3 and anti-CD28 (1×10^6 beads per 1×10^6 cells) (all Miltenyi Biotec). Cells were differentiated over a period of 6 days towards Th1 (10 ng/ml IL12 and 10 μg/ml anti-IL4, derived from Cytobox Th1), Th2 (10 ng/ml II4 and 10 μg/ml anti-Ifnγ, derived from Cytobox Th2) and Treg (5 ng/ml) (all Miltenyi Biotec). Differentiation of cells was assessed by flow cytometry (see FIG. 15 for gating strategy), enhanced cytometric bead array (CBA) from cell culture supernatants and qRT-PCR. Prior to CBA and flow cytometry, cells were stimulated with monensin (0.7 μL/mL, BD Golgi Stop, BD Bioscience, Heidelberg, Germany) for 4 h at 37° C. in the prescence of lonomycin (500 ng/ml, Sigma Aldrich, Missouri, USA) and PMA (5 ng/ml, Sigma Aldrich, Missouri, USA).
Assessment of cytokines by cytometric bead array. Levels of II4, II5 and II13 were analysed in BALF and cell culture supernatants using an enhanced cytometric bead array (eCBA, Fex Set Kits, BD Biosciences, Franklin Lakes, N.J., USA) according to the manufacturer's guidelines.
Gene expression analysis. Total RNA was isolated from homogenized lung tissue or cell culture using the miRNeasy Micro Kit according to manufacturer's instructions (Qiagen, Venlo, Netherlands). Concentrations were determined using a NanoDrop® ND-1000 (NanoDrop Technologies, Erlangen, Germany) spectrophotometer. mRNA was transcribed to cDNA with the QuantiTect Rev. Transcription kit (Qiagen, Venlo, Netherlands) and PCR for specific genes was performed on a LightCycler 480 platform with Light Cycler 480 SYBR Green I Mastermix (Roche, Mannheim, Germany).

Structure (SMILES): N[C@H](Cc1c[nH]c2ccccc12)C(=O)O [D-tryptophan]
- impact on microbial community composition (gut microbiota; AAI mice): significant
- abundance of Ruminococcaceae (gut microbiota; AAI mice with D-Trp): 8.9%
- bacterial diversity (alpha-diversity) of AAI mice (gut microbiota; AAI mice, 50 mM in drinking water): increased
- abundance of Rikenellaceae (gut microbiota; D-Trp groups): 1.1-2.0%
- abundance of Lachnospiraceae (gut microbiota; D-tryptophan treated AAI mice): 20.6%
- abundance of Lachnospiraceae (gut microbiota; D-tryptophan treated mice without AAI): 27.5%
- relative abundance of Odoribacteraceae (gut microbiota; both groups of supplemented animals): 3.9%
- members of the S24-7 family (gut microbiota; mouse, in vivo): neither affected
- Th1 differentiation ([1]; 6 days): remained unaffected
- Th2 cell differentiation ([1]; 6 days): reduced
- lfng expression ([1]; Th1 conditions): remained unaffected
- II-4, Gata3 expression and II-13 secretion ([1]; Th2 conditions): reduced
- Foxp3 expression of Treg cells on mRNA and protein level ([1]; Treg conditions): increased
